According to patent US10259810B2, “N-sulfonylated pyrazolo[3,4-b]pyridin-6-carboxamides and method of use” (AbbVie S.à.r.l., priority 2015, dated 2019):

Columns and labels:
ΔF508-CFTR [1] = target: T1, ΔF508-CFTR (Homo sapiens, UniProt P13569, DEL508-508); test: CFTR cell surface levels using HRP-tagged ΔF508-CFTR expressing CFBE cells, intrinsic corrector capacity; assay type: cell-based; set-up: % Activation: concentration or dose not given beside the values; settings: HRP-tagged ΔF508-CFTR expressing CFBE41o- cells, compound alone (intrinsic corrector capacity), 20 hours at 33° C.; for EC50: read-out: EC50
T1 construct: host or cells: CFBE41o-, doxycycline-inducible
T1 sequence (P13569 with tags, fused parts or gaps DEL508-508): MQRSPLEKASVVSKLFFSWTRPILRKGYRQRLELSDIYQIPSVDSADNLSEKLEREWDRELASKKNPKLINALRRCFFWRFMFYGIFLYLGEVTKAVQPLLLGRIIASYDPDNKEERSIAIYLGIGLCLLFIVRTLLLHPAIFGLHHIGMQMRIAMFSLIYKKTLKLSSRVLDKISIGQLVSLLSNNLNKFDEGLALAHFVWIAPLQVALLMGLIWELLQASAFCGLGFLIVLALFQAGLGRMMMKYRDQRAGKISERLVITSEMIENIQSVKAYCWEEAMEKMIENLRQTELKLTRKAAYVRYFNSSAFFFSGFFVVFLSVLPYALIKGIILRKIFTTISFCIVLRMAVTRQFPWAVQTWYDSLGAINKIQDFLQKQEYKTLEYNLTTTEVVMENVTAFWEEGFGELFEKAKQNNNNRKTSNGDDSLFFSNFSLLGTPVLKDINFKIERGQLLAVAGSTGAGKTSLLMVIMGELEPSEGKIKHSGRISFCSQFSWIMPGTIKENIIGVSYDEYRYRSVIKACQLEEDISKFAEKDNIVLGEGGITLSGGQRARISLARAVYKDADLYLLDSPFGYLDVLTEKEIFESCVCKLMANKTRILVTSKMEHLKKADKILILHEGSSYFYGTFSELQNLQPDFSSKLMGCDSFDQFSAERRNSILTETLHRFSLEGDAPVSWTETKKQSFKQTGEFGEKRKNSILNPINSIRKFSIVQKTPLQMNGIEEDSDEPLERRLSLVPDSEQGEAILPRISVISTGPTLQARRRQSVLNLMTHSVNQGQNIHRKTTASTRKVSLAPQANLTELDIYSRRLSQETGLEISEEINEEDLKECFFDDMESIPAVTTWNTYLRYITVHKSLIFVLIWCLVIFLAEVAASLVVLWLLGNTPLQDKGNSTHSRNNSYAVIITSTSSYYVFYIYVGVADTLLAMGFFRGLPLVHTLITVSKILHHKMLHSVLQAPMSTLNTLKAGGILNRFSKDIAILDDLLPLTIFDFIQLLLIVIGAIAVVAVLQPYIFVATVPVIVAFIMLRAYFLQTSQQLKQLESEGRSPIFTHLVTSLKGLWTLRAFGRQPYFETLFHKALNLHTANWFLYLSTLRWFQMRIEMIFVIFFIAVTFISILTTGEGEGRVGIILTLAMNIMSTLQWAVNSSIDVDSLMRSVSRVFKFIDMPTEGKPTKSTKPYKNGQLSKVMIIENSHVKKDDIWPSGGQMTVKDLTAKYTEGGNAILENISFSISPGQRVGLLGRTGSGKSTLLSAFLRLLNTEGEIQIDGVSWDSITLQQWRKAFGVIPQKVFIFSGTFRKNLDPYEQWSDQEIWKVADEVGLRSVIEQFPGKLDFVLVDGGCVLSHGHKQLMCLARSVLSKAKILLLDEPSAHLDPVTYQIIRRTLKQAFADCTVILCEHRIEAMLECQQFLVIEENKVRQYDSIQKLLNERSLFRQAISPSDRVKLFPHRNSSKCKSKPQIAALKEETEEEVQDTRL
Procedure, shortened: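 Read-out: chemiluminescent HRP activity of ECL4-HRP-tagged ΔF508-CFTR at the cell surface, 15 min substrate in dark. Normalized as 100×(sample−DMSO)/(positive control−DMSO).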

ΔF508-CFTR [2] = target: T1, ΔF508-CFTR; test: CFTR cell surface levels using HRP-tagged ΔF508-CFTR expressing CFBE cells, in the presence of a co-corrector; assay type: cell-based; settings: HRP-tagged ΔF508-CFTR CFBE cells, in the presence of 3 μM co-corrector; for EC50: read-out: EC50
Procedure, shortened: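 Chemiluminescent read-out of surface HRP (15 min, dark) after PBS washes. Activity is normalized as 100×(sample−DMSO)/(3 μM co-corrector alone−DMSO).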

Structure (SMILES) | % Activation (ΔF508-CFTR [1]) | EC50 (ΔF508-CFTR [1]) | % Activation (ΔF508-CFTR [2]) | EC50 (ΔF508-CFTR [2])
CCS(=O)(=O)NC(=O)c1cc(N2CCC(N3CCOCC3)CC2)c2c(C3CCC3)nn(-c3ccc(F)cc3)c2n1 [Compound 466, 3-cyclobutyl-N-(ethanesulfonyl)-1-(4-fluorophenyl)-4-[4-(morpholin-4-yl)piperidin-1-yl]-1H-pyrazolo[3,4-b]pyridine-6-carboxamide] | 318.7% | 176 nM | 522.47% | 64.1 nM
CC(C)N1CCN(C2CCN(c3cc(C(=O)NS(=O)(=O)N(C)C)nc4c3c(C3CCC3)nn4C3CCCCC3)CC2)CC1 [Compound 553, 3-cyclobutyl-1-cyclohexyl-N-(dimethylsulfamoyl)-4-{4-[4-(propan-2-yl)piperazin-1-yl]piperidin-1-yl}-1H-pyrazolo[3,4-b]pyridine-6-carboxamide] | 293% | 1730 nM | 494.3% | 233 nM
CC(C)c1nn(-c2ccc(F)cc2)c2nc(C(=O)NS(C)(=O)=O)cc(N3CCC4(CCCO4)CC3)c12 [Compound 180, 1-(4-fluorophenyl)-N-(methanesulfonyl)-4-(1-oxa-8-azaspiro[4.5]decan-8-yl)-3-(propan-2-yl)-1H-pyrazolo[3,4-b]pyridine-6-carboxamide] | 129.5% | 570 nM | 290.53% | 300 nM
O=C(c1cc(N2CCC(N3CCOCC3)CC2)c2c(C3CCC3)nn(-c3ccccc3)c2n1)N1CCCS1(=O)=O [Compound 665, 2-{3-cyclobutyl-4-[4-(morpholin-4-yl)piperidin-1-yl]-1-phenyl-1H-pyrazolo[3,4-b]pyridine-6-carbonyl}-1λ^6,2-thiazolidine-1,1-dione] | 101.9% | 259 nM | 271.8% | 101 nM
COC1CCCN(C2CCN(c3cc(C(=O)NS(=O)(=O)N(C)C)nc4c3c(C3CCC3)nn4-c3ccc(F)cc3)CC2)C1 (stereo not shown) [Compound 572, 3-cyclobutyl-N-(dimethylsulfamoyl)-1-(4-fluorophenyl)-4-(3-methoxy[1,4'-bipiperidin]-1'-yl)-1H-pyrazolo[3,4-b]pyridine-6-carboxamide] | 237.55% | 295 nM | 412.9% | 225 nM
CC1(COc2cc(C(=O)NS(C)(=O)=O)nc3c2c(C2CCC2)nn3-c2ccccc2)CC(F)(F)C1 [Compound 282, 3-cyclobutyl-4-[(3,3-difluoro-1-methylcyclobutyl)methoxy]-N-(methanesulfonyl)-1-phenyl-1H-pyrazolo[3,4-b]pyridine-6-carboxamide] | 127.8% | 129 nM | 379.95% | 89 nM
COCCS(=O)(=O)NC(=O)c1cc(N2CCC(CN3CCCC3)CC2)c2c(C3CCC3)nn(-c3ccccc3)c2n1 [Compound 464, 3-cyclobutyl-N-(2-methoxyethanesulfonyl)-1-phenyl-4-{4-[(pyrrolidin-1-yl)methyl]piperidin-1-yl}-1H-pyrazolo[3,4-b]pyridine-6-carboxamide] | 277.5% | 306 nM | 423.3% | 170 nM
COC1CCN(Cc2ccc(-c3cc(C(=O)NS(C)(=O)=O)nc4c3c(OC(C)C)nn4C3CCCCC3)cc2)CC1 [Compound 635, 1-cyclohexyl-N-(methanesulfonyl)-4-{4-[(4-methoxypiperidin-1-yl)methyl]phenyl}-3-[(propan-2-yl)oxy]-1H-pyrazolo[3,4-b]pyridine-6-carboxamide] | 216.38% | 155 nM | 449.25% | 73.9 nM
CN(C)S(=O)(=O)NC(=O)c1cc(N2CCC(CCN3CCOCC3)CC2)c2c(C3CCC3)nn(C3CCCCC3)c2n1 [Compound 425, 3-cyclobutyl-1-cyclohexyl-N-(dimethylsulfamoyl)-4-{4-[2-(morpholin-4-yl)ethyl]piperidin-1-yl}-1H-pyrazolo[3,4-b]pyridine-6-carboxamide] | 280.2% | 277 nM | 462.85% | 166 nM
COCCOCC1(F)CCN(c2cc(C(=O)NS(C)(=O)=O)nc3c2c(C2CCC2)nn3-c2ccccc2)CC1 [Compound 502, 3-cyclobutyl-4-{4-fluoro-4-[(2-methoxyethoxy)methyl]piperidin-1-yl}-N-(methanesulfonyl)-1-phenyl-1H-pyrazolo[3,4-b]pyridine-6-carboxamide] | 214.2% | 345 nM | 383.8% | 177 nM
O=C(NS(=O)(=O)CC(F)(F)F)c1cc(N2CCC(N3CCOCC3)CC2)c2c(C3CCC3)nn(-c3ccc(F)cc3)c2n1 [Compound 486, 3-cyclobutyl-1-(4-fluorophenyl)-4-[4-(morpholin-4-yl)piperidin-1-yl]-N-(2,2,2-trifluoroethanesulfonyl)-1H-pyrazolo[3,4-b]pyridine-6-carboxamide] | 332.5% | 467 nM | 569% | 181 nM
Cc1nn(-c2ccccc2)c2nc(C(=O)NS(C)(=O)=O)cc(-c3ccc(N4CC(N(C)C)C4)cc3)c12 [Compound 41, 4-{4-[3-(dimethylamino)azetidin-1-yl]phenyl}-N-(methanesulfonyl)-3-methyl-1-phenyl-1H-pyrazolo[3,4-b]pyridine-6-carboxamide] | 52.497% | 817 nM | 253.3% | 1140 nM
COCC1CCN(c2cc(C(=O)NS(=O)(=O)N3CCC(C(=O)N4CCN(C)CC4)CC3)nc3c2c(C2CCC2)nn3-c2ccccc2)CC1 [Compound 398, 3-cyclobutyl-4-[4-(methoxymethyl)piperidin-1-yl]-N-[4-(4-methylpiperazine-1-carbonyl)piperidine-1-sulfonyl]-1-phenyl-1H-pyrazolo[3,4-b]pyridine-6-carboxamide] | 173.7% | 181 nM | 324.03% | 73.6 nM
Cc1cc(-n2nc(C3CCC3)c3c(N4CCC(N5CCOCC5)CC4)cc(C(=O)NS(=O)(=O)N(C)C)nc32)ccc1F [Compound 511, 3-cyclobutyl-N-(dimethylsulfamoyl)-1-(4-fluoro-3-methylphenyl)-4-[4-(morpholin-4-yl)piperidin-1-yl]-1H-pyrazolo[3,4-b]pyridine-6-carboxamide] | 248.55% | 88.3 nM | 432.95% | 78.9 nM
O=C(NS(=O)(=O)C1CC1)c1cc(N2CCC(N3CCOCC3)CC2)c2c(C3CCC3)nn(-c3ccccc3)c2n1 [Compound 436, 3-cyclobutyl-N-(cyclopropanesulfonyl)-4-[4-(morpholin-4-yl)piperidin-1-yl]-1-phenyl-1H-pyrazolo[3,4-b]pyridine-6-carboxamide] | 393.3% | 344 nM | 568.6% | 71.1 nM
COC1CCN(c2ccc(-c3cc(C(=O)NS(C)(=O)=O)nc4c3c(C(C)C)nn4C3CCCCC3)cn2)C1 (stereo not shown) [Compound 106, 1-cyclohexyl-N-(methanesulfonyl)-4-[6-(3-methoxypyrrolidin-1-yl)pyridin-3-yl]-3-(propan-2-yl)-1H-pyrazolo[3,4-b]pyridine-6-carboxamide] | 162.75% | 526 nM | 348.1% | 394 nM
